The assay is described as follows: PPI after repeated low-dose ropinirole. As to conditions: same low doses as quinpirole. The class given is in vivo.

Take `CCCN(CCC)CCc1cccc2c1CC(=O)N2` [ropinirole]: the “effect on PPI over time” value is reported as “acts like quinpirole to attenuate PPI symptoms over time”.
